Results from ChEMBL document CHEMBL4007467, “Effects of 6-paradol, an unsaturated ketone from gingers, on cytochrome P450-mediated drug metabolism” (Bioorg Med Chem Lett, 2017).

Key:
Assay type in all cases: ADME
CYP2D6 [1] = target: T1, CYP2D6 (Homo sapiens, UniProt P10635); assay: Inhibition of CYP2D6 in human liver microsomes assessed as enzyme-mediated metabolite formation at 3 uM using dextromethorphan as substrate incubated for 5 mins followed by NADPH addition measured after 30 mins by LC-MS/MS analysis relative to control; set-up: scale not given: the % may be the effect or the level left; details: probe dextromethorphan, read-out: Activity
T1 sequence (P10635 whole entry): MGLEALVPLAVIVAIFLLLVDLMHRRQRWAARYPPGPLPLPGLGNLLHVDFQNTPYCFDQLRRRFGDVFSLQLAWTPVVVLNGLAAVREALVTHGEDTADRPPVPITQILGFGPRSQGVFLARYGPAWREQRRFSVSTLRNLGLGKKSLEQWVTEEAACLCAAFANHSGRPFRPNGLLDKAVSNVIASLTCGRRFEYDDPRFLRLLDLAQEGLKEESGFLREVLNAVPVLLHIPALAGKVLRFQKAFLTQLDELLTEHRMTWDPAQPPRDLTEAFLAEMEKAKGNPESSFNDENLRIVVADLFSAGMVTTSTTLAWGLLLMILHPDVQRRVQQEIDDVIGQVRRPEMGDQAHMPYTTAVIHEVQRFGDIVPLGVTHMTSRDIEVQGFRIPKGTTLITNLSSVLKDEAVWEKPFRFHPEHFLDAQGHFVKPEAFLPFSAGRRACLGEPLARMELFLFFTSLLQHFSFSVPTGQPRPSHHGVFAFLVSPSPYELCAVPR

CYP2C9 [2] = target: T2, CYP2C9 (Homo sapiens, UniProt P11712); assay: Inhibition of CYP2C9 in human liver microsomes assessed as enzyme-mediated metabolite formation at 30 uM using diclofenac as substrate incubated for 5 mins followed by NADPH addition measured after 30 mins by LC-MS/MS analysis relative to control; set-up: scale not given: the % may be the effect or the level left; details: probe diclofenac, read-out: Activity
T2 sequence (P11712 whole entry): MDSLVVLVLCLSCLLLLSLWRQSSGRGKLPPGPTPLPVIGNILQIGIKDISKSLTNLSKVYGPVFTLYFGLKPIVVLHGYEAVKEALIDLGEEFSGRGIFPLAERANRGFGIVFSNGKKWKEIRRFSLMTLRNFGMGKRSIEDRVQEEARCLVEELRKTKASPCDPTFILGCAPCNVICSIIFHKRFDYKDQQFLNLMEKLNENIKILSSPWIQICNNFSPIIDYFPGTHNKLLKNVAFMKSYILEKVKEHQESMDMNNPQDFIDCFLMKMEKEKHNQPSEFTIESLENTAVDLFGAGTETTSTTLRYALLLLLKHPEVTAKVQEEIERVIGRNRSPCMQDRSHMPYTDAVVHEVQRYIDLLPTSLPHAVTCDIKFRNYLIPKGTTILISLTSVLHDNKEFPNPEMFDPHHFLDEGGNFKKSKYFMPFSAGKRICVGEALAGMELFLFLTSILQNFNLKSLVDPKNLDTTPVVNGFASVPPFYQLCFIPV

Cytochrome P450 3A4 = Cytochrome P450 3A4 (Homo sapiens, UniProt P08684); assay: Inhibition of CYP3A4 in human liver microsomes using midazolam as substrate preincubated for 20 mins followed by substrate addition measured after 30 mins in presence of NADPH by LC-MS/MS analysis
Sequence of Cytochrome P450 3A4 (P08684 whole entry): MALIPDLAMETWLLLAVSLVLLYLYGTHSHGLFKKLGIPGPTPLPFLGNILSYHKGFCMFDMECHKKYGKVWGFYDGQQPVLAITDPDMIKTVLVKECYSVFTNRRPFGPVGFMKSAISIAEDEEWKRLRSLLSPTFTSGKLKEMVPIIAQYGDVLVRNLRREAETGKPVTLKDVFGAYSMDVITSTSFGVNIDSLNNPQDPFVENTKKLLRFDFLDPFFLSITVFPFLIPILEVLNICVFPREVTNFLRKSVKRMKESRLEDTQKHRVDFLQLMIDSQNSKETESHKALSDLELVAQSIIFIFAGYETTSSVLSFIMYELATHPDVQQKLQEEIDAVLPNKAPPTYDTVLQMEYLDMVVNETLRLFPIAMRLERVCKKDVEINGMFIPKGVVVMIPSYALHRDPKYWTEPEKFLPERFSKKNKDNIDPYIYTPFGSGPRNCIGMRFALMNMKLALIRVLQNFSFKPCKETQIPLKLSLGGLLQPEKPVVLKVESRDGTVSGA

CYP2C8 [3] = target: T3, CYP2C8 (Homo sapiens, UniProt P10632); assay: Inhibition of CYP2C8 in human liver microsomes assessed as enzyme-mediated metabolite formation at 10 uM using paclitaxel as substrate preincubated for 20 mins followed by substrate addition measured after 30 mins in presence of NADPH by LC-MS/MS analysis relative to control; set-up: scale not given: the % may be the effect or the level left; details: probe paclitaxel, read-out: Activity
T3 sequence (P10632 whole entry): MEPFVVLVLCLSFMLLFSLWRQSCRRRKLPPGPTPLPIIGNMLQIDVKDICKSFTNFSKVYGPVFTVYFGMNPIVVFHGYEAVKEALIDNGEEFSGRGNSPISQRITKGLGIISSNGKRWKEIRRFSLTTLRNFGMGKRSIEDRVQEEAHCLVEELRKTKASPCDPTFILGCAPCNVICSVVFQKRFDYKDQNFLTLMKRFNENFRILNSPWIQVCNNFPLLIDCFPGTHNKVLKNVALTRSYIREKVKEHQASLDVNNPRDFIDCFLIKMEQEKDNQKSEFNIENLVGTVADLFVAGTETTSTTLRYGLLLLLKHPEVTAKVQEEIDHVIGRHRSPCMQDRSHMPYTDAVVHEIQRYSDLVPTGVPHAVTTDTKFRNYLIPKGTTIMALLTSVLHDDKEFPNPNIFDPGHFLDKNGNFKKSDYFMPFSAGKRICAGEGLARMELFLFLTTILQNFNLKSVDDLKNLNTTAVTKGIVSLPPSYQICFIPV

CYP3A4 [4] = target: T4, CYP3A4 (Homo sapiens, UniProt P08684); assay: Inhibition of CYP3A4 in human liver microsomes assessed as enzyme-mediated metabolite formation at 1 uM using testosterone as substrate preincubated for 20 mins followed by substrate addition measured after 30 mins in presence of NADPH by LC-MS/MS analysis relative to control; set-up: scale not given: the % may be the effect or the level left; details: probe testosterone, read-out: Activity
T4 sequence (P08684 whole entry): as the sequence (P08684 whole entry) above

CYP3A4 [5] = target: T4, CYP3A4; assay: Inhibition of CYP3A4 in human liver microsomes assessed as enzyme-mediated metabolite formation at 30 uM using testosterone as substrate preincubated for 20 mins followed by substrate addition measured after 30 mins in presence of NADPH by LC-MS/MS analysis relative to control; set-up: scale not given: the % may be the effect or the level left; details: probe testosterone, read-out: Activity
CYP2C8 [6] = target: T3, CYP2C8; assay: Inhibition of CYP2C8 in human liver microsomes assessed as enzyme-mediated metabolite formation at 1 uM using paclitaxel as substrate preincubated for 20 mins followed by substrate addition measured after 30 mins in presence of NADPH by LC-MS/MS analysis relative to control; set-up: scale not given: the % may be the effect or the level left; details: probe paclitaxel, read-out: Activity
CYP2C9 [7] = target: T2, CYP2C9; assay: Inhibition of CYP2C9 in human liver microsomes assessed as enzyme-mediated metabolite formation at 0.1 uM using diclofenac as substrate incubated for 5 mins followed by NADPH addition measured after 30 mins by LC-MS/MS analysis relative to control; set-up: scale not given: the % may be the effect or the level left; details: probe diclofenac, read-out: Activity
CYP2C19 [8] = target: T5, CYP2C19 (Homo sapiens, UniProt P33261); assay: Inhibition of CYP2C19 in human liver microsomes assessed as enzyme-mediated metabolite formation at 3 uM using (S)-mephenytoin as substrate preincubated for 20 mins followed by substrate addition measured after 30 mins in presence of NADPH by LC-MS/MS analysis relative to control; set-up: scale not given: the % may be the effect or the level left; details: probe (S)-mephenytoin, read-out: Activity
T5 sequence (P33261 whole entry): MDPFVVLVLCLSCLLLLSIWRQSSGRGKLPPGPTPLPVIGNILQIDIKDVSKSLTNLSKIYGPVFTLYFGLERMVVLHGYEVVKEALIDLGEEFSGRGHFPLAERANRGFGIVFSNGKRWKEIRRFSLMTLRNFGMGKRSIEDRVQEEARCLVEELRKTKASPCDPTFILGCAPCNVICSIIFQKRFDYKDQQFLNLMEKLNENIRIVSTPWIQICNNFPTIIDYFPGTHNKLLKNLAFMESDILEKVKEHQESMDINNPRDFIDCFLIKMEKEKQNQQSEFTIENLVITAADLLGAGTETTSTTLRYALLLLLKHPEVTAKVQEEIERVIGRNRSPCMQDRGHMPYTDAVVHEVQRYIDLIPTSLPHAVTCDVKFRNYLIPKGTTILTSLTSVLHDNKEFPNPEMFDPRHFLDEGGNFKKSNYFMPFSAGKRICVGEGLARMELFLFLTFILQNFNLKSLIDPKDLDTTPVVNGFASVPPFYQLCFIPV

CYP2C19 [9] = target: T5, CYP2C19; assay: Inhibition of CYP2C19 in human liver microsomes assessed as enzyme-mediated metabolite formation at 30 uM using (S)-mephenytoin as substrate preincubated for 20 mins followed by substrate addition measured after 30 mins in presence of NADPH by LC-MS/MS analysis relative to control; set-up: scale not given: the % may be the effect or the level left; details: probe (S)-mephenytoin, read-out: Activity
CYP2D6 [10] = target: T1, CYP2D6; assay: Inhibition of CYP2D6 in human liver microsomes assessed as enzyme-mediated metabolite formation at 0.1 uM using dextromethorphan as substrate preincubated for 20 mins followed by substrate addition measured after 30 mins in presence of NADPH by LC-MS/MS analysis relative to control; set-up: scale not given: the % may be the effect or the level left; details: probe dextromethorphan, read-out: Activity
CYP2C19 [11] = target: T5, CYP2C19; assay: Inhibition of CYP2C19 in human liver microsomes assessed as enzyme-mediated metabolite formation at 0.1 uM using (S)-mephenytoin as substrate incubated for 5 mins followed by NADPH addition measured after 30 mins by LC-MS/MS analysis relative to control; set-up: scale not given: the % may be the effect or the level left; details: probe (S)-mephenytoin, read-out: Activity
CYP2C9 [12] = target: T2, CYP2C9; assay: Inhibition of CYP2C9 in human liver microsomes assessed as enzyme-mediated metabolite formation at 1 uM using diclofenac as substrate incubated for 5 mins followed by NADPH addition measured after 30 mins by LC-MS/MS analysis relative to control; set-up: scale not given: the % may be the effect or the level left; details: probe diclofenac, read-out: Activity
Cytochrome P450 2B6 = target: T6, Cytochrome P450 2B6 (Homo sapiens, UniProt P20813); assay: Inhibition of CYP2B6 in human liver microsomes using bupropion as substrate preincubated for 20 mins followed by substrate addition measured after 30 mins in presence of NADPH by LC-MS/MS analysis
T6 sequence (P20813 whole entry): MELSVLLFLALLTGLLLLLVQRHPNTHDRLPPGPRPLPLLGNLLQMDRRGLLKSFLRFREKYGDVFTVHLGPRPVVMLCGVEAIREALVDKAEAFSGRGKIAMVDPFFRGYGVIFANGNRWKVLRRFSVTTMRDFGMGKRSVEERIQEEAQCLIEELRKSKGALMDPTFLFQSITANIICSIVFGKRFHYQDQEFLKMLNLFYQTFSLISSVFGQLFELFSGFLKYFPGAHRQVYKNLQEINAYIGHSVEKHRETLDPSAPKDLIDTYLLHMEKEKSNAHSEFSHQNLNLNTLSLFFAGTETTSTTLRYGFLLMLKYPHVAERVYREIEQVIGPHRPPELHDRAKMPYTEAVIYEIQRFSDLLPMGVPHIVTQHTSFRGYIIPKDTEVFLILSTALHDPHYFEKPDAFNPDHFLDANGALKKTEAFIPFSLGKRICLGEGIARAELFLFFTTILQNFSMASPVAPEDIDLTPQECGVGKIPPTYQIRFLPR

activity at 0.5 h, 3 µM (CYP2D6 [1]): 74.6%
activity at 0.5 h, 30 µM (CYP2C9 [2]): 30.9%
IC50 (Cytochrome P450 3A4): > 30 µM
activity at 0.5 h, 10 µM (CYP2C8 [3]): 49%
activity at 0.5 h, 1 µM (CYP3A4 [4]): 89.8%
activity at 0.5 h, 30 µM (CYP3A4 [5]): 62.3%
activity at 0.5 h, 1 µM (CYP2C8 [6]): 61.5%
activity at 0.5 h, 0.1 µM (CYP2C9 [7]): 120%
activity at 0.5 h, 3 µM (CYP2C19 [8]): 67.6%
activity at 0.5 h, 30 µM (CYP2C19 [9]): 36.8%
activity at 0.5 h, 0.1 µM (CYP2D6 [10]): 89.5%
activity at 0.5 h, 0.1 µM (CYP2C19 [11]): 98.4%
activity at 0.5 h, 1 µM (CYP2C9 [12]): 76.6%
IC50 (Cytochrome P450 2B6): 6.3 µM
SMILES: CCCCCCCC(=O)CCc1ccc(O)c(OC)c1
